Results as given in BindingDB's records for doi:10.3109/14756366.2011.645241 (Cairo University, 2013).

Key:
Cannabinoid receptor 1 = Cannabinoid receptor 1 (Homo sapiens, UniProt P21554); experiment: Cannabinoid Receptor Binding Assay
Protocol: (§1) Membranes from HEK-293 cells transfected with the human recombinant CB1 receptor(Bmax=2.5pmol/mg protein) and human recombinant CB2 receptor (B max=4.7 pmol/mgprotein) were incubated with [3H]-CP-55,940 (0.14 nM / Kd = 0.18 nM and 0.084nM / Kd =0.31 nM respectively for CB1 and CB2 receptor) as the high affinity ligand and displaced with 10 μM WIN 55212-2 as the heterologous competitor for non specific binding (Ki values 9.2 nM and 2.1 nM respectively for CB1 and CB2 receptor). All compounds were tested following the procedure described by the manufacturer (Perkin Elmer, Italy). Displacement curves were generated by incubating drugs with [3H]-CP-55,940 for 90 minutes at 30 C. Ki values were calculated by applying the Cheng-Prusoff equation to the IC50 values (obtained by GraghPad) for the displacement of the bound radioligand by increasing concentrations of the testcompound. Data are means±SEM of at least n=3 experiments.

Cannabinoid receptor 2 = Cannabinoid receptor 2 (Homo sapiens, UniProt P34972); experiment: Cannabinoid Receptor Binding Assay
Protocol: as §1

Sequence of Cannabinoid receptor 1 (P21554 whole entry): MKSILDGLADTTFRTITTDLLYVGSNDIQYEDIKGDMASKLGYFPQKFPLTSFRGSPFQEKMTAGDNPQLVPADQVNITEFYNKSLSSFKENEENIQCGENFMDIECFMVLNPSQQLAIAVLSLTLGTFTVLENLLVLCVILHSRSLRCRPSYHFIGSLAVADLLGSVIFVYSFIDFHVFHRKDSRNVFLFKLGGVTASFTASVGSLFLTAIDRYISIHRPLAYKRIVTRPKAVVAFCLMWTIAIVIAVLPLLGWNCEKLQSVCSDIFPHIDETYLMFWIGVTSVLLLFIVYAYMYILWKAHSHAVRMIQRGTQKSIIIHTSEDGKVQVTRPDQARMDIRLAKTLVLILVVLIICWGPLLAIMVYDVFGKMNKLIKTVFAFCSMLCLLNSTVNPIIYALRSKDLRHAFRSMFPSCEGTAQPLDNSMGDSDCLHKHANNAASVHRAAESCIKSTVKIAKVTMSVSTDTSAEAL
Sequence of Cannabinoid receptor 2 (P34972 whole entry): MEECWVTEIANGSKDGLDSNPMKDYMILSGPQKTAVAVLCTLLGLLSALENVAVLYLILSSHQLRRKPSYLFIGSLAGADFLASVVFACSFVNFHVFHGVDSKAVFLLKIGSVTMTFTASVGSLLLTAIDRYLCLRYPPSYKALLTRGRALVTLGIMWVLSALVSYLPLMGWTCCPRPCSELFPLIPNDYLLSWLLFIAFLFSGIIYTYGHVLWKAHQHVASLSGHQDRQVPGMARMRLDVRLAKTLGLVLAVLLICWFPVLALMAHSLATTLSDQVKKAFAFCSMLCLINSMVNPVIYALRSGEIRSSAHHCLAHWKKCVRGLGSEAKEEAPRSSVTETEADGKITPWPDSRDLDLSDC

CCC(C)(O)NC(=O)CCC(=O)/C=C/c1ccccc1 (stereo not given) [(E)-N-(2-Hydroxybutan-2-yl)-4-oxo-6-phenylhex-5-enamide (3a)]
> 10 µM: IC50 (Cannabinoid receptor 1) | Ki (Cannabinoid receptor 1) | IC50 (Cannabinoid receptor 2) | Ki (Cannabinoid receptor 2)

O=C(/C=C/c1ccccc1)CCC(=O)NC(CO)(CO)CO [(E)-N-(1,3-Dihydroxy-2-(hydroxymethyl)propan-2-yl)-4-oxo-6-phenylhex-5-enamide (3b)]
> 10 µM: IC50 (Cannabinoid receptor 1) | Ki (Cannabinoid receptor 1) | IC50 (Cannabinoid receptor 2) | Ki (Cannabinoid receptor 2)

CCC(C)(O)NC(=O)CCC(=O)/C=C/c1ccc(-c2ccccc2)cc1 (stereo not given) [(E)-6-(Biphenyl-4-yl)-N-(2-hydroxybutan-2-yl)-4-oxohex-5-enamide (3m)]
> 10 µM: IC50 (Cannabinoid receptor 1) | Ki (Cannabinoid receptor 1) | IC50 (Cannabinoid receptor 2) | Ki (Cannabinoid receptor 2)

CCOC(=O)CNC(=O)CCC(=O)/C=C/c1ccc(OC)c(OC)c1 [(E)-Ethyl 2-(6-(3,4-dimethoxyphenyl)-4-oxohex-5-enamido)acetate (3h)]
> 10 µM: IC50 (Cannabinoid receptor 1) | Ki (Cannabinoid receptor 1) | IC50 (Cannabinoid receptor 2) | Ki (Cannabinoid receptor 2)

CCC(C)(O)NC(=O)CCC(=O)Nc1cccc2ccccc12 (stereo not given) [N-(2-Hydroxybutan-2-yl)-2-(4-naphthalen-1-ylamino)-4-oxobutanamide (5a)]
> 10 µM: IC50 (Cannabinoid receptor 1) | Ki (Cannabinoid receptor 1) | IC50 (Cannabinoid receptor 2) | Ki (Cannabinoid receptor 2)

CCOC(=O)CNC(=O)CCC(=O)/C=C/c1ccc(OCc2ccccc2)cc1 [(E)-Ethyl 2-(6-(4-(benzyloxy)phenyl)-4-oxohex-5-enamido)acetate (3k)]
> 10 µM: IC50 (Cannabinoid receptor 1) | Ki (Cannabinoid receptor 1) | IC50 (Cannabinoid receptor 2) | Ki (Cannabinoid receptor 2)

CCC(C)(O)NC(=O)CCC(=O)/C=C/c1ccc(OC)c(OC)c1 (stereo not given) [(E)-6-(3,4-Dimethoxyphenyl)-N-(2-hydroxybutan-2-yl)-4-oxohex-5-enamide (3i)]
> 10 µM: IC50 (Cannabinoid receptor 1) | Ki (Cannabinoid receptor 1) | IC50 (Cannabinoid receptor 2) | Ki (Cannabinoid receptor 2)

CCOC(=O)CNC(=O)CCC(=O)Nc1cccc2ccccc12 [Ethyl 2-(4-(naphthalen-1-ylamino)-4-oxobutanamido)acetate (5b)]
> 10 µM: IC50 (Cannabinoid receptor 1) | Ki (Cannabinoid receptor 1) | IC50 (Cannabinoid receptor 2) | Ki (Cannabinoid receptor 2)

CCC(C)(O)NC(=O)CCC(=O)/C=C/c1ccc(OCc2ccccc2)cc1 (stereo not given) [(E)-6-(4-(Benzyloxy)phenyl)-N-(2-hydroxybutan-2-yl)-4-oxohex-5-enamide (3j)]
> 10 µM: IC50 (Cannabinoid receptor 1) | Ki (Cannabinoid receptor 1) | IC50 (Cannabinoid receptor 2) | Ki (Cannabinoid receptor 2)

CC(=O)Nc1ccc(OC(=O)CCC(=O)/C=C/c2ccccc2)cc1 [(E)-4-Acetamidophenyl 4-oxo-6-phenylhex-5-enoate (3l)]
> 10 µM: IC50 (Cannabinoid receptor 1) | Ki (Cannabinoid receptor 1) | IC50 (Cannabinoid receptor 2) | Ki (Cannabinoid receptor 2)

CCC(C)(O)NC(=O)CCC(=O)/C=C/c1ccc(N(C)C)cc1 (stereo not given) [(E)-6-[4-(Dimethylamino)phenyl]-N-(2-hydroxybutan-2yl)-4-oxohex-5-enamide (3g)]
> 10 µM: IC50 (Cannabinoid receptor 1) | Ki (Cannabinoid receptor 1) | IC50 (Cannabinoid receptor 2) | Ki (Cannabinoid receptor 2)

CC(=O)Nc1ccc(OC(=O)CCC(=O)Nc2cccc3ccccc23)cc1 [4-Acetamidophenyl 4-(naphthalen-1-ylamino)-4-oxobutanoate (5c)]
> 10 µM: IC50 (Cannabinoid receptor 1) | Ki (Cannabinoid receptor 1) | IC50 (Cannabinoid receptor 2) | Ki (Cannabinoid receptor 2)

Cc1ccc(/C=C/C(=O)CCC(=O)NC(CO)(CO)CO)cc1 [(E)-N-(1,3-Dihydroxy-2-(hydroxymethylpropan-2-yl)-4-oxo-6-p-tolylhex-5-enamide (3e)]
> 10 µM: IC50 (Cannabinoid receptor 1) | Ki (Cannabinoid receptor 1) | IC50 (Cannabinoid receptor 2) | Ki (Cannabinoid receptor 2)

Cc1ccc(/C=C/C(=O)CCC(=O)Nc2ccc(O)cc2)cc1 [(E)-N-(4-Hydroxyphenyl)-4-oxo-6-p-tolylhex-5-enamide (3f)]
> 10 µM: IC50 (Cannabinoid receptor 1) | Ki (Cannabinoid receptor 1) | IC50 (Cannabinoid receptor 2) | Ki (Cannabinoid receptor 2)

CCC(C)(O)NC(=O)CCC(=O)/C=C/c1ccc(C)cc1 (stereo not given) [(E)-N-(2-Hydroxybutan-2-yl)-4-oxo-6-p-tolylhex-5-enamide (3d)]
> 10 µM: IC50 (Cannabinoid receptor 1) | Ki (Cannabinoid receptor 1) | IC50 (Cannabinoid receptor 2) | Ki (Cannabinoid receptor 2)
